Assay results reported in patent US11814445B2, “Cyclic polypeptides for PCSK9 inhibition” (Ra Pharmaceuticals, Inc., priority 2018, dated 2023).
Numbered stars: 1 amine (or outer) side, 2 acyl side, 3 side chain; on linkers, the order of the positions; unused ones are H or OH. Bridge positions count the residues as written; N and C are the ends. Square brackets hold non-standard residues; d marks the D form. Peptide text beside a SMILES is read from it. ξ: configuration not given here. Trp(5-F) = N[C@@H](Cc1c[nH]c2ccc(F)cc12)C(=O)O; X9 = O=C(CCCCCSCc1ccc(CSCCN[*:1])cc1)[*:2]; Phe(4-CN) = N#Cc1ccc(C[C@H](N)C(=O)O)cc1; Pro(cis-4-F) = O=C(O)[C@@H]1C[C@H](F)CN1; αMeW = C[C@](N)(Cc1c[nH]c2ccccc12)C(=O)O; X1 = O=C(CCSCc1cccc(CSCCN[*:1])c1)[*:2]; 1Nal = N[C@@H](Cc1cccc2ccccc12)C(=O)O; mXylylene = c1cc(C[*:1])cc(C[*:2])c1; NMeY = CN[C@@H](Cc1ccc(O)cc1)C(=O)O; Cha = N[C@@H](CC1CCCCC1)C(=O)O; αMeP = C[C@@]1(C(=O)O)CCCN1; ξP = O=C(O)C1CCCN1; Mpa = O=C(O)CCS

Molecular target: human PCSK9 / human LDLR EGFa domain (Homo sapiens, UniProt Q8NBP7)
Sequence (Q8NBP7 153-692): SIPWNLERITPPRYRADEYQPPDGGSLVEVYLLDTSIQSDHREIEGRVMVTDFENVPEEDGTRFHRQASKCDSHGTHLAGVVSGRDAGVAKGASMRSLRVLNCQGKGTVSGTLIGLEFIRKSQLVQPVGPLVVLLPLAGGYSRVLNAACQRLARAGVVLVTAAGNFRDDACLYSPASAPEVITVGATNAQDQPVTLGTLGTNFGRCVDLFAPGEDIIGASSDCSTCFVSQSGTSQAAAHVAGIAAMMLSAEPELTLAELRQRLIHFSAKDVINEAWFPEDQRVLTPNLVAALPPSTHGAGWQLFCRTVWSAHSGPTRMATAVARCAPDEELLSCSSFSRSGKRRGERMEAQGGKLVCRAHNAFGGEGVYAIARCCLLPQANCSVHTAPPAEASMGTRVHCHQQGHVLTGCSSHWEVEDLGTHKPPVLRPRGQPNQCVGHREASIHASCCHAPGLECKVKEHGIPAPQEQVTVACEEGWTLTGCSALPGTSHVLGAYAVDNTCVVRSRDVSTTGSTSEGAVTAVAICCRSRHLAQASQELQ
Assay: TR-FRET assay of inhibition of the PCSK9-LDLR protein-protein interaction
Type: binding
Conditions: 20 nM human PCSK9, 20 nM human LDLR EGFa domain, 2 hours room temperature
Protocol: A time-resolved fluorescence resonance energy (TR-FRET) assay was used to measure inhibition of the PCSK9-LDLR protein-protein interaction. Briefly, 20 nM avitag-biotinylated human PCSK9 was incubated with 20 nM his-tagged human LDLR EGFa domain in the presence of 5 nM LANCE Ulight Streptavidin (Perkin Elmer) and 5 nM europium-Anti-6×His (Perkin Elmer) for 2 hours covered at room temperature in buffer containing 50 mM HEPES, 150 mM NaCl, 5 mM CaCl2), 0.01% BSA and 0.01% Surfactant P20. Compounds were tested in dose-response and concentrations giving half-maximal inhibition calculated using a 4-parameter fit equation.

| SMILES | IC50 [µM] |
| --- | --- |
| C[C@H]1NC(=O)[C@H]2CCCN2C(=O)[C@H](Cc2c[nH]c3ccc(F)cc23)NC(=O)[C@H](Cc2c[nH]c3ccc(F)cc23)NC(=O)CNC(=O)[C@H](CCCCN)NC(=O)CCSCc2cccc(c2)CSCCNC(=O)C2CCCN2C(=O)[C@H](Cc2ccc(O)cc2)NC1=O (stereo partly shown) [Compound 040] (cyclo(G[Trp(5-F)][Trp(5-F)][dP][dA]Y[ξP][X1]K)) | 0.001 to 0.1 |
| NCCCC[C@@H]1NC(=O)CCSCc2cccc(c2)CSC[C@@H](C(N)=O)NC(=O)[C@@H]2CCCN2C(=O)[C@@H]2CCCN2C(=O)[C@@H]2CCCN2C(=O)[C@@H]2CCCN2C(=O)[C@H](Cc2c[nH]c3ccc(F)cc23)CC(=O)[C@H](Cc2c[nH]c3ccc(F)cc23)NC(=O)CNC1=O [Compound 033] | 1 to 12.1 |
| C[C@@H]1NC(=O)[C@@H]2CCCN2C(=O)[C@H](Cc2c[nH]c3ccc(F)cc23)NC(=O)[C@H](Cc2c[nH]c3ccc(F)cc23)NC(=O)[C@@H](C)NC(=O)[C@@H]2CCCN2C(=O)CCSCc2cccc(c2)CSCCNC(=O)[C@@H]2CCCN2C(=O)[C@H](Cc2ccc(O)cc2)N(C)C1=O [Compound 052] (cyclo(A[NMeY]P[X1]P[dA][Trp(5-F)][Trp(5-F)]P)) | 0.1 to 1 |
| C[C@@H]1NC(=O)[C@@H]2C[C@H](F)CN2C(=O)[C@H](Cc2c[nH]c3ccc(F)cc23)NC(=O)[C@H](Cc2c[nH]c3ccc(F)cc23)NC(=O)CNC(=O)[C@H](CCCCN)NC(=O)CCSCc2cccc(c2)CSC[C@@H](C(N)=O)NC(=O)[C@@H]2CCCN2C(=O)[C@H](Cc2ccc(O)cc2)NC1=O [Compound 002] ([Mpa]KG[Trp(5-F)][Trp(5-F)][Pro(cis-4-F)]AYPC-NH2; linker 1-10 via mXylylene) | 0.001 to 0.1 |
| C[C@@H]1NC(=O)[C@@H]2CCCN2C(=O)[C@](C)(Cc2c[nH]c3ccccc23)NC(=O)[C@H](Cc2c[nH]c3ccc(F)cc23)NC(=O)CNC(=O)[C@H](CCCCN)NC(=O)CCSCc2cccc(c2)CSC[C@@H](C(N)=O)NC(=O)[C@@H]2CCCN2C(=O)[C@H](Cc2ccc(O)cc2)NC1=O [Compound 023] ([Mpa]KG[Trp(5-F)][αMeW]PAYPC-NH2; linker 1-10 via mXylylene) | 1 to 12.1 |

More lines, now with the values ahead:

| IC50 [µM] | SMILES |
| --- | --- |
| 1 to 12.1 | C[C@@H]1NC(=O)CCSCc2cccc(c2)CSCCNC(=O)[C@@H]2CCCN2C(=O)[C@H](Cc2cccc3ccccc23)NC(=O)[C@H](C)NC(=O)[C@@H]2CCCN2C(=O)[C@H](Cc2c[nH]c3ccc(F)cc23)NC(=O)[C@H](Cc2cccc3ccccc23)NC(=O)[C@@H](C)NC1=O [Compound 080] (cyclo([1Nal]P[X1]A[dA][1Nal][Trp(5-F)]PA)) |
| 0.1 to 1 | CN1C(=O)[C@H](Cc2cnc[nH]2)NC(=O)[C@@H]2CCCN2C(=O)[C@H](Cc2c[nH]c3ccc(F)cc23)NC(=O)[C@H](CC2CCCCC2)NC(=O)CNC(=O)[C@H](CCCCN)NC(=O)CCSCc2cccc(c2)CSCCNC(=O)[C@]2(C)CCCN2C(=O)[C@@H]1Cc1ccc(O)cc1 [Compound 106] (cyclo([Cha][Trp(5-F)]PH[NMeY][αMeP][X1]KG)) |
| 1 to 12.1 | C[C@@H]1NC(=O)[C@@H]2CCCN2C(=O)[C@H](Cc2c[nH]c3ccc(F)cc23)NC(=O)[C@H](Cc2c[nH]c3ccc(F)cc23)NC(=O)CNC(=O)CCCCCSCc2ccc(cc2)CSCCNC(=O)C2CCCN2C(=O)[C@H](Cc2ccc(O)cc2)NC1=O (stereo partly shown) [Compound 099] (cyclo(AY[ξP][X9]G[Trp(5-F)][Trp(5-F)]P)) |
| 0.1 to 1 | C[C@@H]1NC(=O)[C@@H]2CCCN2C(=O)[C@H](Cc2c[nH]c3ccc(F)cc23)NC(=O)[C@H](Cc2c[nH]c3ccc(F)cc23)NC(=O)[C@@H](C)NC(=O)[C@@H]2CCCN2C(=O)CCSCc2cccc(c2)CSCCNC(=O)[C@@H]2CCCN2C(=O)[C@H](Cc2ccccc2)NC1=O [Compound 057] (cyclo(AFP[X1]P[dA][Trp(5-F)][Trp(5-F)]P)) |
| 1 to 12.1 | C[C@@H]1NC(=O)CCSCc2cccc(c2)CSC[C@@H](C(N)=O)NC(=O)[C@@H]2CCCN2C(=O)[C@H](Cc2ccc(C#N)cc2)NC(=O)[C@H](C)NC(=O)[C@@H]2CCCN2C(=O)[C@H](Cc2c[nH]c3ccc(F)cc23)NC(=O)[C@H](Cc2c[nH]c3ccc(F)cc23)NC(=O)[C@@H](C)NC1=O [Compound 081] ([Mpa]A[dA][Trp(5-F)][Trp(5-F)]PA[Phe(4-CN)]PC-NH2; linker 1-10 via mXylylene) |
